Results reported in patent US20160120915A1, “METHODS FOR MANIPULATING IMMUNE RESPONSES BY ALTERING MICROBIOTA” (NEW YORK UNIVERSITY, priority 2013, published 2016).
Where a name gives a salt, the structure may show the parent alone.

Columns and labels:
[1] = test system: ileal tissue structure; experiment: Ileal atrophy scoring in H&E stained ileum; assay type: in vivo, C57BL/6J mice; conditions: 4-week old mice, n=5 each, p<0.05 Mann-Whitney U, vs control
Text: Atrophy was scored in hematoxylin and eosin (H&E) stained ileum samples from 4-week old control and STAT mice (n=5 each).
Ileal tissues from 4-week-old control and STAT mice were formalin fixed and paraffin embedded, cut, and stained with hemotoxylin and eosin (H&E). 4 slides were scored for ileal atrophy per mouse and the average score per mouse was averaged.

[2] = test system: Candidatus Arthromitus (segmented filamentous bacteria, SFB); experiment: SFB relative abundance by 16S rRNA sequencing in microbiota donors; assay type: in vivo, C57BL6J mice; conditions: STAT donors, all time points
Text: As above, mice were weaned onto normal chow at 4 weeks and switched to HFD at 6 weeks of age. Cecal microbiota was collected at 18 weeks of age and transferred to 3 to 4-week old germ-free Swiss-Webster mice, which were then housed in specific pathogen-free (SPF) conditions and fed HFD. Longitudinal fecal samples were collected and microbial communities were profiled by 16S rRNA sequencing using standard universal primers (Caporaso et al., ISMEJ 2012, 8:1621-4) at an average depth of approximately 5,800 sequences per sample.
Taxonomy was assigned based on the Green Genes May 2013 database, and the percentage of sequences classified as Candidatus Arthromitus, the candidate genus name for segmented filamentous bacteria (SFB), was calculated. […] SFB was present in all 3 control donor mice at levels >1%. SFB was undetectable in STAT donors at all time points, and in the Control donors following the switch to a HFD (8 weeks and beyond). SFB was nearly undetectable in microbiota recipients. Only one STAT-recipient mouse had SFB detected, and it was only one sequence that was classified as SFB out of 7,657 total sequences. SFB was not detected in any of the 7 Control or the other 7 STAT microbiota-recipients. […] Other microbiota taxa are thus important in the transferred phenotype.

[3] = test system: terminal ileum; experiment: PAT: ileal gene expression profiling by whole genome microarray, 6-week mice; assay type: in vivo, C57BL/6 mice; conditions: 6-week PAT vs Control, T-test p<0.05 and fold change ≧1.2 or ≦0.8
Experimental: Ileal gene expression profiling of STAT, PAT, and control animal groups, was performed using the Affymetrix Genechip system (Affymetrix). Total RNA quality and quantity were determined using the Agilent 2100 Bioanalyser and Nanodrop ND-1000. Total RNA (100 ng) was used to prepare cDNA following the Affymetrix […] Express Kit labelling protocol (Affymetrix). Standardized array processing procedures recommended by Affymetrix were performed, including hybridization, fluidics processing and scanning of the Affymetrix MG-430 2.0 arrays. GeneSpring GX11 software (Agilent Technologies) was used to normalize the raw data (Affymetrix CEL files) by Robust Multichip Average algorithm (RMA).
1127 and 3065 reproducibly regulated genes were identified from ˜45,000 genes of the mouse genome by T-test (p<0.05) and fold change (≧1.2 or ≦0.8) in 6-week PAT (Panel A; Control vs Amoxicillin and Panel B; Control vs Tylosin), respectively (FIG. 22). DAVID analysis was performed using the regulated genes, and Gene Set Enrichment analysis (GSEA) was performed using whole gene data.
(C, n=3), amoxicillin (A, n=3), and tylosin treated mice (T, n=3).

[4] = test system: intestinal microbial communities; experiment: EL-PAT: 16S rRNA V4 sequencing of fecal, ileal and cecal microbiota; assay type: in vivo, C57BL/6 mice
Experimental: For the experiments, dams and their litters were divided into control and antibiotic groups. In the EL-PAT study dams in the antibiotic groups received Tylosin tartrate (Sigma Aldrich, St. Louis Mo.) dissolved in distilled deionized water (neutral pH) at a concentration of 0.33 mg/ml, and dams in the control group received non-acidified water. Mice in the PAT3 group received two additional doses of antibiotics at day 27 and 36 of life for 3 days. In some experiments, C57BL/6 mice were exposed to one, PAT1, (n=17, M=9, F=8) or three, PAT3, (n=19, M=10, F=9) doses of the macrolide Tylosin in non-acidified water or non-acidified water alone (control, n=12, M=9, F=3), early-in-life, to mirror pediatric antibiotic exposures. For the first antibiotic pulse […] of Tylosin tartrate (Sigma) was dissolved in 250 ml of non-acidified water and given to PAT1 and PAT3 lactating dams at pup day 5 of life for 5 days. For the second and third pulse, pups received the antibiotic directly at day 27 and day 36 of life respectively, for three days. Mice were sacrificed at 7 weeks of age and fecal, ileal and cecal contents were collected. Throughout the experiment mouse weight and fecal contents were collected. Fecal, ileal and cecal DNA were extracted using Mobio 96-well extraction kit (MO BIO Laboratories, Inc., CA). For amplicon library generation, the V4 region of 16s rRNA gene was amplified with gene specific primers (SEQ ID NOS: 39-43). Amplicons were prepared in triplicate, pooled and quantified. The 254 bp V4 region was sequenced using the Illumina MiSeq 2×150 bp platform (Illumina Inc., CA). Forward and reverse reads were joined using the ea-utils module fastq-join. Demultiplexing and operational taxonomic unit (OTU) picking were performed using the bioinformatic tool Qiime, while pair-end reads were demultiplexed with the script split_libraries_fastq.py. Reads were quality filtered at a phred score of 20 using -q flag, and the flag --rev_comp_mapping allowed reading of the reverse complement barcode before demultiplexing. Open referenced OTU picking was performed using pick_open_reference_otus.py script to assign a taxonomy for each OTU representative sequence and build a phylogenetic tree, and an OTU table. For alpha and beta diversity, samples were rarified at a sequencing depth of 1000.

[5] = PAT3 group, two additional doses
[6] = at sacrifice, six-weeks (PAT1) and one-week (PAT3) after last pulse
[7] = one therapeutic dose, dams and offspring

CC1(C)S[C@@H]2[C@H](NC(=O)COc3ccccc3)C(=O)N2[C@H]1C(=O)[O-].[K+] [STAT, penicillin VK]
ileal atrophy [1]: significantly more
SFB relative abundance [2]: undetectable

CC[C@H]1OC(=O)C[C@@H](O)[C@H](C)[C@@H](O[C@@H]2O[C@H](C)[C@@H](O[C@H]3C[C@@](C)(O)[C@@H](O)[C@H](C)O3)[C@H](N(C)C)[C@H]2O)[C@@H](CC=O)C[C@@H](C)C(=O)/C=C/C(C)=C/[C@@H]1CO[C@@H]1O[C@H](C)[C@@H](O)[C@@H](OC)[C@H]1OC [Tylosin, Tylosin tartrate]
reproducibly regulated genes out of ~45,000 genes of the mouse genome [3]: 3065
relative abundance of Blautia producta [4, 5]: blooms
relative abundance of family Enterobacteriaceae [4, 5]: blooms
ileal evenness [4, 6]: decreases
ileal richness [4, 6]: decreases
abundance of Bifidobacterium (ileal, LEfSe) ([4]; early-life PAT): decreases
abundance of S24-7 (ileal, LEfSe) ([4]; early-life PAT): decreases
abundance of SFB (ileal, LEfSe) ([4]; early-life PAT): decreases
relative abundance of Akkermansia muciniphila (ileal, LEfSe) ([4]; early-life PAT): increases
ileal microbial communities (PCoA, Jenson-Shannon divergence) ([4]; male and female, independent of sex): significantly different from Control
fecal, cecal and ileal microbial diversity (phylogenetic diversity) ([4]; male pups over time, one or three pulses vs Control): decreases
intestinal microbial populations (PCoA, weighted Unifrac) ([4]; one and three therapeutic doses early in life, males and females): significantly alters
Segemented Filamentous Bacteria [4, 7]: loss
relative abundance of Bacteroides uniformis [4, 7]: blooms
relative abundance of Akkermansia muciniphila ([4]; one therapeutic dose, dams and offspring, fecal, ileal and cecal samples): blooms
